Laboratory results reported in patent US11081236B2, “Diagnostic and therapeutic methods for the treatment of breast cancer” (GENENTECH, INC., priority 2018, dated 2021).

Experiments:
Format in all cases: cell-based
[1] = system: MDA-MB-330; assay: RNA sequencing after E2 or DMSO treatment, MDA-MB-330
Method: (§1) To derive a transcriptional signature of ER pathway activity, RNA sequencing was performed on seven breast cancer cell lines following treatment with either DMSO or 1 μM estradiol (E2) for 24 hours. Briefly, RNA libraries for cell lines were made with TRUSEQ® RNA sample preparation kit (ILLUMINA®) according to the manufacturer's protocol. The libraries were sequenced on an ILLUMINA® Hi Seq 2000, using 1-4 lanes per cell line. RNA sequencing (RNA-seq) data were analyzed with HTSeqGenie (R package version 3.14.0) in BioConductor (Huber et al. Nature Methods. 112:115-21, 2015) as follows: reads were trimmed to 75 base pairs (bp), filtered for quality and rRNA/adapter contamination, and aligned to the reference genome GRCh38 using GSNAP (Wu et al. Bioinforma Oxf Engl. 26:873-81, 2010). Gene expression was quantified as Reads per Kilobase of exon model per Million mapped reads normalized by size factor (nRPKM), defined as number of reads aligning to a gene in a sample/(total number of uniquely mapped reads for that sample x gene length x size factor). Genes without gene symbol and genes of uncertain function (LOC and Corf symbols) were excluded.

[2] = system: T47D; assay: RNA sequencing after E2 or DMSO treatment, T47D
Method: as §1

[3] = system: EFM19; assay: RNA sequencing after E2 or DMSO treatment, EFM19
Method: as §1

[4] = system: MCF7; assay: RNA sequencing after E2 or DMSO treatment, MCF7
Method: as §1

[5] = gene NBEA, 1 μM E2 24 hours vs DMSO
[6] = gene PNPLA7, 1 μM E2 24 hours vs DMSO
[7] = gene PSCA, 1 μM E2 24 hours vs DMSO
[8] = gene SEMASE, 1 μM E2 24 hours vs DMSO
[9] = gene SSPO, 1 μM E2 24 hours vs DMSO
[10] = gene STON1, 1 μM E2 24 hours vs DMSO
[11] = gene TGFB3, 1 μM E2 24 hours vs DMSO
[12] = gene TP53INP1, 1 μM E2 24 hours vs DMSO
[13] = gene TP53INP2, 1 μM E2 24 hours vs DMSO
[14] = gene BAMBI, 1 μM E2 24 hours vs DMSO
[15] = gene BCAS1, 1 μM E2 24 hours vs DMSO
[16] = gene CCNG2, 1 μM E2 24 hours vs DMSO
[17] = gene DDEE4, 1 μM E2 24 hours vs DMSO
[18] = gene EGLN3, 1 μM E2 24 hours vs DMSO
[19] = gene FAM1718, 1 μM E2 24 hours vs DMSO
[20] = gene GRM4, 1 μM E2 24 hours vs DMSO
[21] = gene IL1R1, 1 μM E2 24 hours vs DMSO
[22] = gene LIPH, 1 μM E2 24 hours vs DMSO

## C[C@]12CC[C@@H]3c4ccc(O)cc4CC[C@H]3[C@@H]1CC[C@@H]2O [Compound E2, estradiol]
[1]; [5]
  Log2 FC E2 vs no E2: NBEA: −1.044
[1]; [6]
  Log2 FC E2 vs no E2: PNPLA7: −1.084
[1]; [7]
  Log2 FC E2 vs no E2: PSCA: −2.529
[1]; [8]
  Log2 FC E2 vs no E2: SEMASE: −2.427
[1]; [9]
  Log2 FC E2 vs no E2: SSPO: −1.383
[1]; [10]
  Log2 FC E2 vs no E2: STON1: −1.081
[1]; [11]
  Log2 FC E2 vs no E2: TGFB3: −1.111
[1]; [12]
  Log2 FC E2 vs no E2: TP53INP1: −1.304
[1]; [13]
  Log2 FC E2 vs no E2: TP53INP2: −1.210
[2]; [14]
  Log2 FC E2 vs no E2: BAMBI: −1.394
[2]; [15]
  Log2 FC E2 vs no E2: BCAS1: −2.536
[2]; [16]
  Log2 FC E2 vs no E2: CCNG2: −1.310
[2]; [17]
  Log2 FC E2 vs no E2: DDEE4: −1.878
[2]; [18]
  Log2 FC E2 vs no E2: EGLN3: −2.052
[2]; [19]
  Log2 FC E2 vs no E2: FAM1718: −1.158
[2]; [20]
  Log2 FC E2 vs no E2: GRM4: −1.340
[2]; [21]
  Log2 FC E2 vs no E2: IL1R1: −2.433
[2]; [22]
  Log2 FC E2 vs no E2: LIPH: −1.330
[2]; [5]
  Log2 FC E2 vs no E2: NBEA: −1.368
[2]; [6]
  Log2 FC E2 vs no E2: PNPLA7: −1.211
[2]; [7]
  Log2 FC E2 vs no E2: PSCA: −1.253
[2]; [8]
  Log2 FC E2 vs no E2: SEMASE: −0.741
[2]; [9]
  Log2 FC E2 vs no E2: SSPO: −1.181
[2]; [10]
  Log2 FC E2 vs no E2: STON1: −2.304
[2]; [11]
  Log2 FC E2 vs no E2: TGFB3: −1.263
[2]; [12]
  Log2 FC E2 vs no E2: TP53INP1: −1.363
[2]; [13]
  Log2 FC E2 vs no E2: TP53INP2: −0.959
[3]; [14]
  Log2 FC E2 vs no E2: BAMBI: −1.554
[3]; [15]
  Log2 FC E2 vs no E2: BCAS1: −2.189
[3]; [16]
  Log2 FC E2 vs no E2: CCNG2: −1.442
[3]; [17]
  Log2 FC E2 vs no E2: DDEE4: −1.101
[3]; [18]
  Log2 FC E2 vs no E2: EGLN3: −1.008
[3]; [19]
  Log2 FC E2 vs no E2: FAM1718: −1.910
[3]; [20]
  Log2 FC E2 vs no E2: GRM4: −1.141
[3]; [21]
  Log2 FC E2 vs no E2: IL1R1: −2.327
[3]; [22]
  Log2 FC E2 vs no E2: LIPH: −1.844
[3]; [5]
  Log2 FC E2 vs no E2: NBEA: −1.105
[3]; [6]
  Log2 FC E2 vs no E2: PNPLA7: −0.901
[3]; [7]
  Log2 FC E2 vs no E2: PSCA: −1.593
[3]; [8]
  Log2 FC E2 vs no E2: SEMASE: −1.100
[3]; [9]
  Log2 FC E2 vs no E2: SSPO: −0.605
[3]; [10]
  Log2 FC E2 vs no E2: STON1: −1.500
[3]; [11]
  Log2 FC E2 vs no E2: TGFB3: −1.350
[3]; [12]
  Log2 FC E2 vs no E2: TP53INP1: −1.461
[3]; [13]
  Log2 FC E2 vs no E2: TP53INP2: −1.373
[4]; [14]
  Log2 FC E2 vs no E2: BAMBI: −0.571
[4]; [15]
  Log2 FC E2 vs no E2: BCAS1: −0.981
[4]; [16]
  Log2 FC E2 vs no E2: CCNG2: −1.267
[4]; [17]
  Log2 FC E2 vs no E2: DDEE4: −1.080
[4]; [18]
  Log2 FC E2 vs no E2: EGLN3: −1.090
[4]; [19]
  Log2 FC E2 vs no E2: FAM1718: −1.287
[4]; [20]
  Log2 FC E2 vs no E2: GRM4: −1.106
[4]; [21]
  Log2 FC E2 vs no E2: IL1R1: −2.160
[4]; [22]
  Log2 FC E2 vs no E2: LIPH: −1.170
[4]; [5]
  Log2 FC E2 vs no E2: NBEA: −1.132
[4]; [6]
  Log2 FC E2 vs no E2: PNPLA7: −1.046
[4]; [7]
  Log2 FC E2 vs no E2: PSCA: −2.199
[4]; [8]
  Log2 FC E2 vs no E2: SEMASE: −1.034
[4]; [9]
  Log2 FC E2 vs no E2: SSPO: −1.338
[4]; [10]
  Log2 FC E2 vs no E2: STON1: −2.067
[4]; [11]
  Log2 FC E2 vs no E2: TGFB3: −1.707
[4]; [12]
  Log2 FC E2 vs no E2: TP53INP1: −1.816
[4]; [13]
  Log2 FC E2 vs no E2: TP53INP2: −1.207
